Assays:
[1] = Phase 1 single ascending dose plasma pharmacokinetics of 40-minute IV infusion of R(−)-ketamine and its metabolites; settings: for Tmax: all dose levels 5 mg to 150 mg; for AUC(0-inf) / Cmax / AUC(0-t): iv
Method: This was a Phase 1 randomized, placebo-controlled, double-blind, single dose study conducted at one center. […] The pharmacokinetic (PK) population was 36 subjects, with 12 additional subjects receiving placebo. […] Subjects were male or female healthy subjects, 18 to 65 years of age. […] Cohort 1 was dosed at 5 mg, followed by Cohort 2 at 15 mg, Cohort 3 at 30 mg, Cohort 4 at 60 mg, Cohort 5 at 100 mg, and Cohort 6 at 150 mg R(−)-ketamine. […] In addition to the safety and tolerability data, the study also evaluated the dose-related PK of each 40-minute IV infusion of R(−)-ketamine.
To evaluate the pharmacokinetics of R(−)-ketamine, blood was drawn from subjects for PK analysis at the following sampling times: pre-dose (−30 minutes); and from the start of infusion (5, 10, and 15 minutes [±1 minute], 30 minutes [±5 minutes], 40 minutes [immediately prior to infusion completion], 1, 1.5, 2, and 3 hours [±5 minutes], 4 and 8 hours [±10 minutes], 12 and 24 hours [±15 minutes]).
Plasma PK parameters of R(−)-ketamine and its metabolites (norketamine, 6-hydroxynorketamine, and dehydronorketamine) evaluated on include the following: • Maximum plasma concentration (Cmax), • Time to Cmax (Tmax), • Area under the plasma concentration curve (AUC0-t, AUC0-∞) • Elimination rate constant (λz), • Half-live (t½) • Clearance (CL, P R(−)-ketamine only), • Volume of distribution (Vz, R(−)-ketamine only), and • Metabolite to parent ratios (area under curve [AUC] and Cmax).
The dose proportionality was assessed both visually and statistically using calculated Cmax and AUC values. […] Continuous variables: Descriptive statistics included the number of non-missing values (n), arithmetic mean, standard deviation (SD), median, minimum, and maximum values. […] For PK concentration data, the number of non-missing values, number of below limit of quantification (BLQ) values, arithmetic mean, SD, median, minimum, maximum, coefficient of variation (CV %), geometric mean, and geometric CV (geo CV %) values are presented. For PK parameter data, the number of non-missing values, arithmetic mean, SD, median, minimum, maximum, CV %, geometric mean, and geometric CV (geo CV %) values are presented.
Intravenous administration of allocated blinded study drug (Morning, Day 1) was infused over 40 minutes. Blood collection for plasma PK analysis occurred at infusion 5, 10, 15, 30, 40, 60, and 90 minutes, and 2, 3, 4, 8, and 12 hours after the start of infusion.
Plasma concentrations of R(−)-ketamine and its metabolites norketamine, 6-hydroxynorketamine, and dehydronorketamine were determined using a suitable validated analytical method with a lower limit of quantitation (LOQ) of 1 ng/mL.
The linearity of the increase in exposure with respect to the increasing dose administered was evaluated for Cmax and AUC for R(−)-ketamine and its metabolites (norketamine, 6-hydroxynorketamine and dehydronorketamine). […] The power model was used to estimate the slope parameter and the 90% confidence intervals for the slope.

rats = assay: Anhedonic or negative affective side effects
[2] = in vivo; cited from earlier work
[3] = system: phencyclidine site of the N-methyl-D-aspartate (NMDA) receptor; settings: phencyclidine site; cited from earlier work
TRD patients = settings: 15 mg; cited from earlier work
[4] = 5 mg R(−)-ketamine IV over 40 minutes, plasma
[5] = 150 mg R(−)-ketamine IV over 40 minutes, plasma

NC1(c2ccccc2Cl)CCCC(O)C1=O (stereo not shown) [6-hydroxynorketamine]
Arithmetic mean AUC0-24h ([1]; 5 mg R(−)-ketamine IV): 110 ng·h/mL | Arithmetic mean AUC0-t ([1]; 5 mg R(−)-ketamine IV): 110 ng·h/mL | Arithmetic mean Cmax [1, 4]: 5.98 ng/mL | Arithmetic mean AUC0-24h ([1]; 150 mg R(−)-ketamine IV): 3000 ng·h/mL | Arithmetic mean AUC0-t ([1]; 150 mg R(−)-ketamine IV): 3000 ng·h/mL | Arithmetic mean Cmax [1, 5]: 165 ng/mL | Metabolite/R(−)-ketamine ratio based on AUC0-24h, arithmetic mean ([1]; across 5 mg to 150 mg cohorts): 2.22 | Metabolite/R(−)-ketamine ratio based on AUC0-t, arithmetic mean ([1]; across 5 mg to 150 mg cohorts): 2.22

N[C@@]1(c2ccccc2Cl)CCC[C@@H](O)C1=O [R-hydroxynorketamine]
Anhedonic or negative affective side effects (rats): no anhedonic or negative affective side effects

CN[C@]1(c2ccccc2Cl)CCCCC1=O [S(+)-ketamine, reference compound]
Side effects (hyperlocomotion, prepulse inhibition deficit, drug dependence) [2]: induced side effects such as a hyperlocomotion, prepulse inhibition deficit, and drug dependence | Binding affinity relative to R(−)-ketamine [3]: approximately 4 times | Antidepressant effect (TRD patients): robust antidepressant effect

NC1(c2ccccc2Cl)CCC=CC1=O (stereo not shown) [dehydronorketamine]
Arithmetic mean AUC0-24h ([1]; 5 mg R(−)-ketamine IV): 2.5 ng·h/mL | Arithmetic mean AUC0-t ([1]; 5 mg R(−)-ketamine IV): 1.37 ng·h/mL | Arithmetic mean Cmax [1, 4]: 0.198 ng/mL | Arithmetic mean AUC0-inf ([1]; 15 mg R(−)-ketamine IV): 16.3 ng·h/mL | Fold increase in AUC0-inf ([1]; 15 mg to 150 mg (10-fold increase in dose)): 35.3 fold | Arithmetic mean AUC0-24h ([1]; 150 mg R(−)-ketamine IV): 424 ng·h/mL | Arithmetic mean AUC0-inf ([1]; 150 mg R(−)-ketamine IV): 576 ng·h/mL | Arithmetic mean AUC0-t ([1]; 150 mg R(−)-ketamine IV): 424 ng·h/mL | Arithmetic mean Cmax [1, 5]: 35.6 ng/mL | Stability in the samples ([1]; PK samples): not stable in the samples

NC1(c2ccccc2Cl)CCCCC1=O (stereo not shown) [norketamine]
Metabolite/R(−)-ketamine ratio based on Cmax, arithmetic mean ([1]; across 5 mg to 150 mg cohorts): 0.448 | half-life ([1]; both, human, plasma, intravenous): 6.7 to 8.05 h | Tmax ([1]; both, human, plasma, intravenous, Approximate median plasma Tmax): ~1 h | Tmax ([1]; both, human, plasma, intravenous, Plasma Tmax range (mixed units as printed)): 0.667 to 2 h | AUC(0-inf) ([1]; both, human, plasma, 5 mg): 79.1 ng·h/mL | Cmax ([1]; both, human, plasma, 5 mg): 11.4 ng/mL | AUC(0-t) ([1]; both, human, plasma, 5 mg, Arithmetic mean AUC0-24h, 5 mg R(−)-ketamine IV): 79.6 ng·h/mL | AUC(0-t) ([1]; both, human, plasma, 5 mg, Arithmetic mean AUC0-t, 5 mg R(−)-ketamine IV): 78 ng·h/mL | AUC(0-inf) ([1]; both, human, plasma, 150 mg): 3530 ng·h/mL | Cmax ([1]; both, human, plasma, 150 mg): 360 ng/mL | AUC(0-t) ([1]; both, human, plasma, 150 mg, Arithmetic mean AUC0-24h, 150 mg R(−)-ketamine IV): 3140 ng·h/mL | AUC(0-t) ([1]; both, human, plasma, 150 mg, Arithmetic mean AUC0-t, 150 mg R(−)-ketamine IV): 3140 ng·h/mL

Source: patent US20260027068A1, “METHODS OF ADM[…]-KETAMINE” (Perception Neuroscience, Inc., priority 2022, published 2026)
